Results from patent US11702419B2, “Heterocyclic compound and use thereof” (Takeda Pharmaceutical Company Limited, priority 2018, dated 2023).

Target: T1, NMDA receptor composed of four subunits consisting of two sets of heterodimers of NR1 and NR2B (human GRIN1 and GRIN2B-expressing HEK293 cells) (Homo sapiens, UniProt Q13224)
T1 construct: host or cells: HEK293 (tetracycline-inducible expression)
Assay: NR2B Ca2+ influx assay
Format: cell-based
Conditions: 10 μM compound, glutamic acid/glycine-induced Ca2+ influx, FLIPR, read-out: inhibitory rate (10 μM compound concentration)
Procedure: In order to confirm an “antagonistic action on an NMDA receptor containing the NR2B subunit” which the compound of the present invention has, inhibitory effect on the NMDA receptor activation was evaluated using “NMDA receptor composed of four subunits consisting of two sets of heterodimers of NR1 and NR2B”-expressing human fetal renal cells, specifically human glutamate ionotropic receptor NMDA type subunit 1 (GRIN1) and human glutamate ionotropic receptor NMDA type subunit 2B (GRIN2B)-expressing HEK293 cells.
As an index of the NMDA receptor activation, intracellular calcium ion (Ca^2+) influx caused by bonding of glycine and glutamate to NR1 and NR2B respectively was used. HEK293 cells were purchased from ChanTest. The cells were cultured in a DMEM/F-12 (COSMO BIO, 10-092-CM) medium containing 10% FBS (fetal bovine serum, AusGene), 100 units/mL penicillin, 100 μg/mL streptomycin, 500 μg/mL neomycin, 100 μg/mL Zeocin and 5 μg/mL Blasticidin at 37° C., 5% CO2. The cells were detached from flask with trypsin the day before the assay, suspended in a seeding medium (DMEM (Invitrogen, 31053) containing 10% FBS, 100 units/mL penicillin and 100 μg/mL streptomycin) at 8×10^5 cells/mL, seeded by 25 μL per well in a 384-well plate (Falcon, 356663) at 20000 cells/well, and cultured overnight in an incubator. On the day of the assay, tetracycline (Wako Pure Chemical Industries, 209-16561) was diluted with the seeding medium at 2 μg/mL, and the dilution was added at 25 μL/well to the plate seeded with the cells, and the cells were cultured for 2 hr in an incubator. Thereafter, the medium was removed, and the cells were washed with 50 μL/well of assay buffer (137 mM NaCl, 4 mM KCl, 1.8 mM CaCl2, 10 mM HEPES (pH 7.2), 10 mM Glucose, and 0.1% BSA). Then, a loading buffer (assay buffer containing 2.5 μM Fluo-4AM, 2 mM Amaranth and 1 mM Tartrazine) was added thereto at 25 μL/well, and loading was performed in the incubator for 30 min, and then at room temperature for 15 min. The test compound was diluted with the above-mentioned assay buffer so as to adjust the concentration to 30 μM, the obtained solution (25 μL) was added thereto (the final concentration 10 μM), and the cells were stood for 15 min at room temperature. Using FLIPR (Molecular Devices), 25 μL of an assay buffer containing 30 μM glutamic acid and 30 μM glycine was added thereto, and the fluorescence signal was measured every 3 seconds for 5 min. The relative activity value (inhibitory rate) was calculated when the cumulative total value of the fluorescence value of a well added with a buffer free of glutamic acid and glycine, relative to the cumulative total value of the fluorescence value of each well are regarded as 100% inhibition. The obtained value was evaluated as an inhibitory activity.

T1 sequence (Q13224 27-1484, other chains not shown): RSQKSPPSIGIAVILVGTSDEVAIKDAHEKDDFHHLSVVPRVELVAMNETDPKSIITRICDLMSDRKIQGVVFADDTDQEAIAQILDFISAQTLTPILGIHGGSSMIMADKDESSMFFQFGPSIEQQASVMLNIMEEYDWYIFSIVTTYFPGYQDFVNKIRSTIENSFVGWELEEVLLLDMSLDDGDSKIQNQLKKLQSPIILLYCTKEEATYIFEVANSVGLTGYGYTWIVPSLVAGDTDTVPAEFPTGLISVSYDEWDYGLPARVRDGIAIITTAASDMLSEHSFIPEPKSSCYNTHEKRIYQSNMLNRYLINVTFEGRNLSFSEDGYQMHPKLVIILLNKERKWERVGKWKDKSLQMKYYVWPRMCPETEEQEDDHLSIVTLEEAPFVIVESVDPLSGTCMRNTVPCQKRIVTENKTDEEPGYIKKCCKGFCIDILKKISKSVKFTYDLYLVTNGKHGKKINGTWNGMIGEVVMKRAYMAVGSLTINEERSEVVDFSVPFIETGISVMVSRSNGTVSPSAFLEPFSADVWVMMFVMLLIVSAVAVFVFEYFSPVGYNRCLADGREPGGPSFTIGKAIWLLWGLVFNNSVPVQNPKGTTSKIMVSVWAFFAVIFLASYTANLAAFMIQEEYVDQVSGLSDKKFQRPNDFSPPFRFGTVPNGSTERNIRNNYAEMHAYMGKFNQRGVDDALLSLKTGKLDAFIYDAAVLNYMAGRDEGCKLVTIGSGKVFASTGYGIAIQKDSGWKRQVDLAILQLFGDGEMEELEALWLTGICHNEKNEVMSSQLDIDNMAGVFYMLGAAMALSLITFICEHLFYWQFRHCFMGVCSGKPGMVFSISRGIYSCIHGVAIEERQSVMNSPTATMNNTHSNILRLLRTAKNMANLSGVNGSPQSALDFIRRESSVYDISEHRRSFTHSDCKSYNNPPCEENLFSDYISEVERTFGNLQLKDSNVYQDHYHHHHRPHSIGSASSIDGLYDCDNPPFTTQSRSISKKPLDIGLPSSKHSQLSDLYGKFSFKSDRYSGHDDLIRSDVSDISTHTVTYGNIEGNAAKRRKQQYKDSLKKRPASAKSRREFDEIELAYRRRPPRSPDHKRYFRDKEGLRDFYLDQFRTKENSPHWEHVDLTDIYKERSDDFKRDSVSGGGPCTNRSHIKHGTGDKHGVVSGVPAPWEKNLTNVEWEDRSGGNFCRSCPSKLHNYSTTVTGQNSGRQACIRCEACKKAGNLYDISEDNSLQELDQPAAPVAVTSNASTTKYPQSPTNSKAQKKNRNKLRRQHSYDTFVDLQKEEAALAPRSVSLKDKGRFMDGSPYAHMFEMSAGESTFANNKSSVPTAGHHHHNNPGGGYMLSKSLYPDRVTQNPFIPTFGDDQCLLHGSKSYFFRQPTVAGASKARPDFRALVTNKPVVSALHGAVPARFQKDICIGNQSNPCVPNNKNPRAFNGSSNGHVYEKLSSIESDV

| SMILES | inhibition at 10 µM [%] |
| --- | --- |
| O=C(NCc1cnn2nccnc12)c1ccc(OC(F)(F)F)c(F)c1 [Example 47, 3-fluoro-N-(pyrazolo[1,5-b][1,2,4]triazin-8-ylmethyl)-4-(trifluoromethoxy)benzamide] | 93 |
| Cc1cnn2ncc(CNC(=O)c3cnc(OC(F)F)c(F)c3)c2c1 [Example 39, 6-(difluoromethoxy)-5-fluoro-N-((5-methylpyrazolo[1,5-b]pyridazin-3-yl)methyl)nicotinamide] | 97 |
| Cc1nn2ncc(CNC(=O)c3cnc(OC(F)F)c(Cl)c3)c2n1C [Example 72, 5-chloro-6-(difluoromethoxy)-N-[(1,2-dimethyl-1H-pyrazolo[1,5-b][1,2,4]triazol-7-yl)methyl]pyridine-3-carboxamide] | 95 |
| COc1ncc(C(=O)NCc2cnn3ccn(C)c23)cc1F [Example 61, 5-fluoro-6-methoxy-N-((1-methyl-1H-imidazo[1,2-b]pyrazol-7-yl)methyl)nicotinamide] | 88 |
| O=C(NCc1cnn2ccncc12)c1ccc(OC(F)F)c(F)c1 [Example 44, 4-(difluoromethoxy)-3-fluoro-N-(pyrazolo[1,5-a]pyrazin-3-ylmethyl)benzamide] | 94 |
| Cc1nn2ccn(C)c2c1CNC(=O)c1cnc(OC(F)F)c(F)c1 [Example 73, 6-(difluoromethoxy)-N-[(1,6-dimethyl-1H-imidazo[1,2-b]pyrazol-7-yl)methyl]-5-fluoropyridine-3-carboxamide] | 93 |
| Cc1nn2cnccc2c1CNC(=O)c1cnc(OC(F)F)c(F)c1 [Example 55, 6-(difluoromethoxy)-5-fluoro-N-((2-methylpyrazolo[1,5-c]pyrimidin-3-yl)methyl)nicotinamide] | 84 |
| O=C(NCc1cnn2ccn(CC(F)(F)F)c12)c1cnc(OC(F)F)c(F)c1 [Example 82, 6-(difluoromethoxy)-5-fluoro-N-{[1-(2,2,2-trifluoroethyl)-1H-imidazo[1,2-b]pyrazol-7-yl]methyl}pyridine-3-carboxamide] | 72 |
| O=C(NCc1nnn2ncccc12)c1ccc(OC(F)(F)F)c(F)c1 [Example 18, 3-fluoro-N-([1,2,3]triazolo[1,5-b]pyridazin-3-ylmethyl)-4-(trifluoromethoxy)benzamide] | 98 |
| Cc1nn2ncc(CNC(=O)c3ccc(OC(F)(F)F)c(F)c3)c2n1CC(F)F [Example 78, N-{[1-(2,2-difluoroethyl)-2-methyl-1H-pyrazolo[1,5-b][1,2,4]triazol-7-yl]methyl}-3-fluoro-4-(trifluoromethoxy)benzamide] | 81 |
| Cc1nn2ncccc2c1CNC(=O)c1cnc(OC(F)F)c(Cl)c1 [Example 46, 5-chloro-6-(difluoromethoxy)-N-((2-methylpyrazolo[1,5-b]pyridazin-3-yl)methyl)nicotinamide] | 96 |
| Cc1nn2ncc(CNC(=O)c3cnc(OC(F)F)c(F)c3)c2n1C [Example 70, 6-(difluoromethoxy)-N-[(1,2-dimethyl-1H-pyrazolo[1,5-b][1,2,4]triazol-7-yl)methyl]-5-fluoropyridine-3-carboxamide] | 100 |
| Cc1nn2ncc(CNC(=O)c3ccc(OC(F)(F)F)c(F)c3)c2n1C [Example 71, N-[(1,2-dimethyl-1H-pyrazolo[1,5-b][1,2,4]triazol-7-yl)methyl]-3-fluoro-4-(trifluoromethoxy)benzamide] | 97 |
| O=C(NCc1nnn2ccncc12)c1ccc(OC(F)(F)F)c(F)c1 [Example 42, 3-fluoro-N-([1,2,3]triazolo[1,5-a]pyrazin-3-ylmethyl)-4-(trifluoromethoxy)benzamide] | 94 |
| O=C(NCc1nnn2ncccc12)c1cnc(OC(F)F)c(Cl)c1 [Example 22, 5-chloro-6-(difluoromethoxy)-N-([1,2,3]triazolo[1,5-b]pyridazin-3-ylmethyl)nicotinamide] | 98 |
| COCc1nn2ncccc2c1CNC(=O)c1cnc(OC(F)F)c(F)c1 [Example 31, 6-(difluoromethoxy)-5-fIuoro-N-((2-(methoxymethyl)pyrazolo[1,5-b]pyridazin-3-yl)methyl)nicotinamide] | 84 |
